Measurements from ChEMBL document CHEMBL4706481, “Optimization and evaluation of novel tetrahydropyrido[4,3-d]pyrimidine derivatives as ATX inhibitors for cardiac and hepatic fibrosis” (Eur J Med Chem, 2020).
Calls of active or inactive are those of the source. No cut-off for these calls is given here.

Assays:
[1] = Antiproliferative activity against Wistar/Sprague-Dawley rat cardiac fibroblasts assessed as inhibition of cell proliferation at 10 uM measured after 24 hrs by MTT assay relative to control; assay type: functional, CF [Rat heart fibroblast]; conditions: Fibroblast
[2] = Antiproliferative activity against Sprague-Dawley rat T-HSC/Cl-6 assessed as inhibition of cell proliferation at 10 uM measured after 24 hrs by MTT assay relative to control; assay type: functional
Autotaxin [3] = target: T1, Autotaxin (Homo sapiens, UniProt Q13822); test: Inhibition of glycosylated human ATX using FS-3 as substrate preincubated for 45 mins under shaking condition followed by substrate addition and measured after 45 mins by fluorescence assay
Autotaxin [4] = target: T1, Autotaxin; test: Inhibition of human ATX using FS-3 as substrate measured after 30 mins by fluorescence plate reader assay
[5] = Antiproliferative activity against Wistar/Sprague-Dawley rat cardiac fibroblasts assessed as inhibition of cell proliferation measured after 24 hrs by MTT assay; assay type: functional, CF [Rat heart fibroblast]; conditions: Fibroblast
[6] = Antiproliferative activity against Sprague-Dawley rat T-HSC/Cl-6 assessed as inhibition of cell proliferation measured after 24 hrs by MTT assay; assay type: functional; conditions: T-HSC/Cl-6, 24 h
Cardiac fibroblast = test: Antifibrotic activity against TGFbeta-induced fibrosis in mouse cardiac fibroblasts assessed as reduction in collagen content at 10 ug/ml pretreated with TGFbeta followed by compound treatment and measured after 12 hrs by SDS-PAGE analysis; assay type: functional; conditions: dose 10.0 µg/ml
Mus musculus [7] = test: Antifibrotic activity against CCl4-induced fibrosis in Kunming mouse assessed as decrease in fiber accumulation at 20 mg/kg, po administered for 2 weeks post CCl-4 challenge by hematoxylin and eosin staining based light microscopic analysis; assay type: functional, organism-based
Mus musculus [8] = test: Antifibrotic activity against CCl4-induced fibrosis in Kunming mouse assessed as decrease in steatosis at 20 mg/kg, po administered for 2 weeks post CCl-4 challenge by hematoxylin and eosin staining based light microscopic analysis; assay type: functional, organism-based
Mus musculus [9] = test: Antifibrotic activity against CCl4-induced fibrosis in Kunming mouse assessed as decrease in inflammatory cells infiltration at 20 mg/kg, po administered for 2 weeks post CCl-4 challenge by hematoxylin and eosin staining based light microscopic analysis; assay type: functional, organism-based
Mus musculus [10] = test: Antifibrotic activity against CCl4-induced fibrosis in Kunming mouse assessed as decrease in fiber accumulation at 20 mg/kg, po administered for 2 weeks post CCl-4 challenge by Masson staining based light microscopic analysis; assay type: functional, organism-based
Mus musculus [11] = test: Antifibrotic activity against CCl4-induced fibrosis in Kunming mouse assessed as decrease in steatosis at 20 mg/kg, po administered for 2 weeks post CCl-4 challenge by Mason staining based light microscopic analysis; assay type: functional, organism-based
Mus musculus [12] = test: Antifibrotic activity against CCl4-induced fibrosis in Kunming mouse assessed as decrease in inflammatory cells infiltration at 20 mg/kg, po administered for 2 weeks post CCl-4 challenge by Masson staining based light microscopic analysis; assay type: functional, organism-based
Mus musculus [13] = test: Antifibrotic activity against CCl4-induced fibrosis in Kunming mouse assessed as loss of fiber accumulation at 40 mg/kg, po administered for 2 weeks post CCl-4 challenge by hematoxylin and eosin staining based light microscopic analysis; assay type: functional, organism-based
Mus musculus [14] = test: Antifibrotic activity against CCl4-induced fibrosis in Kunming mouse assessed as loss of fiber accumulation at 40 mg/kg, po administered for 2 weeks post CCl-4 challenge by Masson staining based light microscopic analysis; assay type: functional, organism-based
Mus musculus [15] = test: Antifibrotic activity against CCl4-induced fibrosis in Kunming mouse assessed as loss of bile ductules at 40 mg/kg, po administered for 2 weeks post CCl-4 challenge by hematoxylin and eosin staining based light microscopic analysis; assay type: functional, organism-based
Mus musculus [16] = test: Antifibrotic activity against CCl4-induced fibrosis in Kunming mouse assessed as loss of bile ductules at 40 mg/kg, po administered for 2 weeks post CCl-4 challenge by Masson staining based light microscopic analysis; assay type: functional, organism-based
Mus musculus [17] = test: Antifibrotic activity against CCl4-induced fibrosis in Kunming mouse assessed as loss of inflammatory cells at 40 mg/kg, po administered for 2 weeks post CCl-4 challenge by hematoxylin and eosin staining based light microscopic analysis; assay type: functional, organism-based
Mus musculus [18] = test: Antifibrotic activity against CCl4-induced fibrosis in Kunming mouse assessed as loss of inflammatory cells at 40 mg/kg, po administered for 2 weeks post CCl-4 challenge by Masson staining based light microscopic analysis; assay type: functional, organism-based
[19] = Antifibrotic activity against TGFbeta-induced fibrosis in mouse cardiac fibroblasts assessed as reduction in collagen content at 10 ug/ml pretreated with TGFbeta followed by compound treatment and measured after 12 hrs by SDS-PAGE analysis relative to control; assay type: functional, Cardiac fibroblast; parameters: scale not given: the % may be the effect or the level left; conditions: dose 10 µg/ml

In the case of `O=C(N/N=C/c1ccc(F)c(Cl)c1)N1CCc2ncnc(Nc3cccc(Br)c3)c2C1`, the inhibition at 10 µM [1] is reported as 45.1% and the inhibition at 10 µM [2] is reported as 60.3%.
Work on `O=C(N/N=C/c1ccc(F)cc1Cl)N1CCc2ncnc(Nc3cccc(C(F)(F)F)c3)c2C1` yielded an IC50 (Autotaxin [3]) of 26.9 nM, an inhibition at 10 µM [1] of 55.2% and an inhibition at 10 µM [2] of 70.6%.
For `O=C(N/N=C/c1ccco1)N1CCc2ncnc(Nc3cccc(C(F)(F)F)c3)c2C1`, the inhibition at 10 µM [1] was 54.1% and the inhibition at 10 µM [2] was 71.5%.
`Cc1ccc(/C=N/NC(=O)N2CCc3ncnc(Nc4cccc(Br)c4)c3C2)cc1C` showed an inhibition at 10 µM [1] of 41.7% and an inhibition at 10 µM [2] of 49.2%.
For `O=C(N/N=C/c1ccc(OC(F)(F)F)cc1)N1CCc2ncnc(Nc3cccc(C(F)(F)F)c3)c2C1`, the IC50 (Autotaxin [3]) was 41.2 nM, the inhibition at 10 µM [1] was 67.1% and the inhibition at 10 µM [2] was 65%.
`O=C(N/N=C/c1ccc(O)c(Br)c1)N1CCc2ncnc(Nc3ccc(F)c(Cl)c3)c2C1` showed an IC50 (Autotaxin [3]) of 31.3 nM, an inhibition at 10 µM [1] of 69% and an inhibition at 10 µM [2] of 72%.
Work on `O=C(N/N=C/c1cc(C(F)(F)F)cc(C(F)(F)F)c1)N1CCc2ncnc(Nc3cccc(C(F)(F)F)c3)c2C1` yielded an inhibition at 10 µM [1] of 42.5% and an inhibition at 10 µM [2] of 62.9%.
With `CS(=O)(=O)c1ccc(/C=N/NC(=O)N2CCc3ncnc(Nc4cccc(C(F)(F)F)c4)c3C2)cc1` the IC50 (Autotaxin [3]) was 35.8 nM, the inhibition at 10 µM [1] was 45.9% and the inhibition at 10 µM [2] was 61.5%.
With `O=C(N/N=C/c1ccc(OC(F)(F)F)cc1)N1CCc2ncnc(Nc3cccc(Br)c3)c2C1` the inhibition at 10 µM [1] was 48.8% and the inhibition at 10 µM [2] was 54.8%.
In the case of `O=C(CCc1nc2ccccc2s1)N1CCc2ncnc(Cc3ccc(F)cc3)c2C1`, the IC50 (Autotaxin [3]) is reported as 10.4 nM, the IC50 (Autotaxin [4]) is reported as 29.1 nM and the inhibition at 10 µM [1] is reported as 68.4%. For the same compound, the inhibition at 10 µM [2] was 73.8%.
Work on `O=C(N/N=C/c1ccc(Cl)cc1)N1CCc2ncnc(Nc3cccc(Br)c3)c2C1` yielded an IC50 (Autotaxin [3]) of 27.5 nM, an inhibition at 10 µM [1] of 61.1% and an inhibition at 10 µM [2] of 72.5%.
With `O=C(N/N=C/c1cccnc1)N1CCc2ncnc(Nc3cccc(C(F)(F)F)c3)c2C1` the inhibition at 10 µM [1] was 41.2% and the inhibition at 10 µM [2] was 63.2%.
Work on `O=C(N/N=C/c1cccc(Br)c1)N1CCc2ncnc(Nc3cccc(C(F)(F)F)c3)c2C1` yielded an IC50 (Autotaxin [3]) of 35.3 nM, an inhibition at 10 µM [1] of 54.6% and an inhibition at 10 µM [2] of 68.1%.
With `Cc1cc(C)c(/C=N/NC(=O)N2CCc3ncnc(Nc4ccc(F)c(Cl)c4)c3C2)c(C)c1` the inhibition at 10 µM [1] was 54% and the inhibition at 10 µM [2] was 58.1%.
`CS(=O)(=O)c1ccc(/C=N/NC(=O)N2CCc3ncnc(Nc4ccc(F)c(Cl)c4)c3C2)cc1` showed an IC50 (Autotaxin [3]) of 21 nM, an inhibition at 10 µM [1] of 66.2% and an inhibition at 10 µM [2] of 60.3%.
`CS(=O)(=O)c1ccc(/C=N/NC(=O)N2CCc3ncnc(Nc4cccc(Br)c4)c3C2)cc1` gave an IC50 (Autotaxin [3]) of 34.7 nM, an inhibition at 10 µM [1] of 43.7% and an inhibition at 10 µM [2] of 55%.
Work on `O=C(N/N=C/c1ccc[nH]1)N1CCc2ncnc(Nc3cccc(C(F)(F)F)c3)c2C1` yielded an inhibition at 10 µM [1] of 51.3% and an inhibition at 10 µM [2] of 68.8%.
Compound `O=C(N/N=C/c1cc(C(F)(F)F)cc(C(F)(F)F)c1)N1CCc2ncnc(Nc3cccc(Br)c3)c2C1` has an IC50 (Autotaxin [3]) of 29.1 nM, an inhibition at 10 µM [1] of 70.1% and an inhibition at 10 µM [2] of 62.1%.
For `O=C(N/N=C/c1ccccc1)N1CCc2ncnc(Nc3cccc(C(F)(F)F)c3)c2C1`, the inhibition at 10 µM [1] was 48.3% and the inhibition at 10 µM [2] was 57.4%.
For `O=C(N/N=C/c1ccc(Cl)cc1)N1CCc2ncnc(Nc3cccc(C(F)(F)F)c3)c2C1`, the IC50 (Autotaxin [3]) was 15.3 nM, the inhibition at 10 µM [1] was 73.8% and the IC50 [5] was 1210 nM. The inhibition at 10 µM [2] was 83.7%, the IC50 [6] was 780 nM and the Activity (Cardiac fibroblast) was “Active”. The Activity (Mus musculus [7]) was “Active”, the Activity (Mus musculus [8]) was “Active” and the Activity (Mus musculus [9]) was “Active”. The Activity (Mus musculus [10]) was “Active”, the Activity (Mus musculus [11]) was “Active” and the Activity (Mus musculus [12]) was “Active”. For the same compound, the Activity (Mus musculus [13]) was “Active”, the Activity (Mus musculus [14]) was “Active” and the Activity (Mus musculus [15]) was “Active”. For the same compound, the Activity (Mus musculus [16]) was “Active”, the Activity (Mus musculus [17]) was “Active” and the Activity (Mus musculus [18]) was “Active”.
In the case of `O=C(N/N=C/c1cc([N+](=O)[O-])ccc1Cl)N1CCc2ncnc(Nc3ccc(F)c(Cl)c3)c2C1`, the IC50 (Autotaxin [3]) is reported as 43.8 nM, the inhibition at 10 µM [1] is reported as 72.1% and the inhibition at 10 µM [2] is reported as 74.7%.
Compound `O=C(N/N=C/c1cccc(C(F)(F)F)c1)N1CCc2ncnc(Nc3cccc(Br)c3)c2C1` has an IC50 (Autotaxin [3]) of 30.2 nM, an inhibition at 10 µM [1] of 51.8% and an inhibition at 10 µM [2] of 64.8%.
In the case of `O=C(N/N=C/c1ccc(Cl)cc1Cl)N1CCc2ncnc(Nc3cccc(C(F)(F)F)c3)c2C1`, the IC50 (Autotaxin [3]) is reported as 33.9 nM, the inhibition at 10 µM [1] is reported as 58.5% and the inhibition at 10 µM [2] is reported as 66.3%.
Work on `Cc1ccc(/C=N/NC(=O)N2CCc3ncnc(Nc4cccc(C(F)(F)F)c4)c3C2)cc1` yielded an IC50 (Autotaxin [3]) of 29.1 nM, an inhibition at 10 µM [1] of 72.6% and an IC50 [5] of 1510 nM. The inhibition at 10 µM [2] was 77.2% and the IC50 [6] was 1140 nM.
In the case of `O=C(N/N=C/c1cc(F)c(F)cc1Cl)N1CCc2ncnc(Nc3cccc(Br)c3)c2C1`, the inhibition at 10 µM [1] is reported as 41.7% and the inhibition at 10 µM [2] is reported as 56.7%.
With `O=C(N/N=C/c1ccc(Cl)cc1)N1CCc2ncnc(Nc3ccc(F)c(Cl)c3)c2C1` the IC50 (Autotaxin [3]) was 24.2 nM, the inhibition at 10 µM [1] was 81.5% and the IC50 [5] was 870 nM. For the same compound, the inhibition at 10 µM [2] was 79.4%, the IC50 [6] was 1100 nM and the Activity (Cardiac fibroblast) was “Active”. It also gave an Activity [19] of 74.4%.
